{"source": "patent US20040014702A1", "about": "“Mammalian prostaglandin H synthase-2” (priority 1992, published 2004)", "key": {"[1]": {"target": "T1, griPGHS (Mus musculus, UniProt Q05769)", "T1 sequence (Q05769 18-604)": "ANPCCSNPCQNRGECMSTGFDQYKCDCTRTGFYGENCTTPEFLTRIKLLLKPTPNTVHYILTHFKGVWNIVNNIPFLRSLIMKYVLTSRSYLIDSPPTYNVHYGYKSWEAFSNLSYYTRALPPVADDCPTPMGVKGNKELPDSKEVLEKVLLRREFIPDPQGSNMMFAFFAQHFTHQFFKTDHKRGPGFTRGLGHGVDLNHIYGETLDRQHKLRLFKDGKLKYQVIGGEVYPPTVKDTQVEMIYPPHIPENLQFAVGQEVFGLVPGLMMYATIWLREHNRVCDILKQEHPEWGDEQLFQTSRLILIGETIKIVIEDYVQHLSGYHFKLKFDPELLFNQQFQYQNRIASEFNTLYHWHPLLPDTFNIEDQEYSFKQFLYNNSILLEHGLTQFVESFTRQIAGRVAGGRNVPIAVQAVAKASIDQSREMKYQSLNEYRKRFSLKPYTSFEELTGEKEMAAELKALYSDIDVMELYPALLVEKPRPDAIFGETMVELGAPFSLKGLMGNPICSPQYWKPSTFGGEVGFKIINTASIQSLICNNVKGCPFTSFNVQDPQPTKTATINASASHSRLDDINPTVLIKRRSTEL", "conditions": "E9 cells", "method": "(§1) Cyclooxygenase activity was determined in the cultures by addition of media containing exogenous arachidonic acid substrate (30 AM for 15 min. at 37° C.) followed by conversion of the prostaglandin E2 product to a methyl oximate form. This derivative was then quantitated by radioimmunoassay (kit from Amersham Corp.).\nProstaglandin assays were carried out as described above. For drug studies, cells were exposed to various concentrations of drugs for 30 min in serum-free DMEM and arachidonic acid was added directly from a 25×stock in DMEM. Supernatants were harvested 15 min later. Controls consisted of no drugs and wells treated with maximal concentrations of drug vehicles (1% methanol or ethanol).\nCells were placed in serum-free medium with the drugs for 30 min prior to a 15 min exposure to arachidonic acid (added directly to the media). Synthesized PGE2 was then quantitated from the supernatants by a standard radio immunoassay."}, "[2]": {"tested_on": "human monocytes", "test": "Accumulated PGE2 in supernatant of human monocytes", "type": "cell-based", "conditions": "after 4 hr of incubation, dexamethasone 1 μM; without 122.5", "method": "as §1\nAdherent human monocytes isolated from healthy donors as described by Roberts et al., 1978, J. Immunol, 121:1052-1058, were suspended in M199 medium without serum at 1×10^6 cells/ml. one ml aliquots in 5 ml polypropylene tubes were incubated with loosened caps in 5% CO2 at 37° C. with occasional shaking. To derive the autoradiograph shown in FIG. 3A, monocytes were incubated for 4 hr in the presence or absence of dexamethasone (1 AM; Sigma) prior to total RNA isolation by the procedure of P. Chomczynski et al., cited above. Five μg RNA was subjected to Northern blot analysis as described by O'Banion et al., 1991, J. Biol. Chem., 34:23261-23267 with the indicated probes labeled by random priming (kit from Boehringer-Mannheim) to a specific activity >1×10^9 cpm/μg. To derive the autoradiograph shown in FIG. 3B, monocytes were treated with dexamethasone (1 μM), […] (10 half-maximal units, Collaborative Research), or both for the indicated times prior to RNA isolation. […]"}, "[3]": {"tested_on": "griPGHS mRNA (4.8-kb mRNA)", "test": "Northern blot of griPGHS (PGHS-2) mRNA in human monocytes", "type": "cell-based", "conditions": "for increased levels of griPGHS mRNA relative to control: IL-1β 10 half-maximal units", "method": "(§2) Poly-A enriched RNAs (2.5 μg) from C127 cells were fractionated by formaldehyde-agarose gel electrophoresis and transferred to a membrane (Duralon, Stratagene). Hybridization was carried out as previously described by O'Banion et al., 1991, J. Virol., 65:3481-3488, using the 5′ 1.2 kb EcoRI fragment of the 4.1 kb cDNA labeled with ^32P by random priming as disclosed by Feinberg et al., 1983, Anal. Biochem., 132:6-13. The membrane was later rehybridized with a similarly labeled portion (1.6 kb 5′ end) of the 2.8 kb ovine PGHS cDNA (Oxford Biomedical Research, Inc.), and an end-labeled 40-mer complimentary to β-tubulin (Oncor). RNA molecular weight markers (Life Technologies) were visualized by ethidium bromide staining. A similar analysis was performed on total RNA (5 μg/lane) isolated from human monocytes by the guanidinium-acid-phenol extraction method of Chomczynski et al., 1987, Anal. Biochem., 162:156-159.\nAdherent human monocytes isolated from healthy donors as described by Roberts et al., 1978, J. Immunol, 121:1052-1058, were suspended in M199 medium without serum at 1×10^6 cells/ml. one ml aliquots in 5 ml polypropylene tubes were incubated with loosened caps in 5% CO2 at 37° C. with occasional shaking. To derive the autoradiograph shown in FIG. 3A, monocytes were incubated for 4 hr in the presence or absence of dexamethasone (1 AM; Sigma) prior to total RNA isolation by the procedure of P. Chomczynski et al., cited above. Five μg RNA was subjected to Northern blot analysis as described by O'Banion et al., 1991, J. Biol. Chem., 34:23261-23267 with the indicated probes labeled by random priming (kit from Boehringer-Mannheim) to a specific activity >1×10^9 cpm/μg. To derive the autoradiograph shown in FIG. 3B, monocytes were treated with dexamethasone (1 μM), […] (10 half-maximal units, Collaborative Research), or both for the indicated times prior to RNA isolation. Cycloheximide (25 μM; Sigma) was added to one set of incubations 15 min prior to the addition of cytokine or hormone."}, "[4]": {"tested_on": "2.8-kb PGHS mRNA", "test": "Northern blot of 2.8-kb PGHS (PGHS-1) mRNA in human monocytes", "type": "cell-based", "conditions": "IL-1β, dexamethasone or cycloheximide treatment", "method": "as §2\nAdherent human monocytes isolated from healthy donors as described by Roberts et al., 1978, J. Immunol, 121:1052-1058, were suspended in M199 medium without serum at 1×10^6 cells/ml. one ml aliquots in 5 ml polypropylene tubes were incubated with loosened caps in 5% CO2 at 37° C. with occasional shaking. […]"}, "[5]": {"tested_on": "C127 mouse fibroblasts", "test": "Inhibition of protein synthesis in C127 cell cultures", "type": "cell-based", "conditions": "C127, 0.25 h, within 15 min", "method": "Exponentially growing, subconfluent (60-80%) cell monolayers (35-mm plates) were labeled in Dulbecco's modified Eagle's medium without methionine (Life Technologies) plus 200 μCi/ml Tran^35S-label (>1,000 Ci/mmol; ICN) for 15 or 30 min. In some cases, fresh fetal calf serum (10%) was present during the labeling period. Monolayers were rinsed twice with ice-cold Dulbecco's modified Eagle's medium (DMEM) with methionine prior to lysis in 200 μl of A8 buffer (9.5 M urea, 2% (w/v) Nonidet P-40, 2% (w/v) ampholines (LKB, 1.6% pH range 5-8, 04.% pH range 3.5-10), 5% (w/v) 2-mercaptoethanol). Incorporation of label into proteins was determined by trichloroacetic acid precipitation. Dexamethasone (Sigma) was freshly prepared in phosphate-buffered saline (PBS) (stock concentrations based on molar extinction coefficient of 1.5×10^4 liters/mol/cm at 250 nn) and added to 1 μM. The calcium ionophore A23187 (Calbiochem) was used at a concentration of 5 μM from a 2.5 mM stock in ethanol. Cycloheximide (Sigma) was used at a concentration of 25 μM from a 100× stock in water. This level inhibited protein synthesis by >97% within 15 min. Control cultures received appropriate amounts of solvents."}, "[6]": {"tested_on": "colon tumor", "conditions": "several clinical trials; cited from earlier work"}, "[7]": {"target": "T2, human PGHS-2 (Homo sapiens, UniProt P35354)", "T2 sequence (P35354 18-604)": "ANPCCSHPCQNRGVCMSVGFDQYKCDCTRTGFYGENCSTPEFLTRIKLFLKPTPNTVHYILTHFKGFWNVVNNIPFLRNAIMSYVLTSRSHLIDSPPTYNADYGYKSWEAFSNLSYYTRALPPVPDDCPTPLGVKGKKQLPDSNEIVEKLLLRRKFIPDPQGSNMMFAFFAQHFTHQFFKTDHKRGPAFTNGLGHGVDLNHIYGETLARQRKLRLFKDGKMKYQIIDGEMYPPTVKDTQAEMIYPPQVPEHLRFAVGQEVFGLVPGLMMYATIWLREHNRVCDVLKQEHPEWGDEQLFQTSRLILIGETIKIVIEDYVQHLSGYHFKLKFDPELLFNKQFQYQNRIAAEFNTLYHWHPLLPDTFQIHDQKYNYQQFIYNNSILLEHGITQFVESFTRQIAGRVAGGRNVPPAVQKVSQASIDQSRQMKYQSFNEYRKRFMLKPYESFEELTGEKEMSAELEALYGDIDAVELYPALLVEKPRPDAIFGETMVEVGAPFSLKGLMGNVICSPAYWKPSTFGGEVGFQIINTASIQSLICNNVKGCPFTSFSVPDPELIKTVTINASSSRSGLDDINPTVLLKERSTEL", "conditions": "cell lines incl. H17A5 (PGHS-1) and 4B4 (PGHS-2), 30 min drug, 15 min arachidonic acid", "method": "PGHS-1 and PGHS-2 cell lines (including 4B4 and H17A5) were exposed to various concentrations of NSAID for 30 min in serum-free DMEM. Arachidonic acid was added directly from a 25×stock in DMEM and supernatants were harvested 15 min later. Controls consisted of no drug treatment and cells treated with the maximal concentrations of drug vehicles (1% methanol or ethanol). […] Cyclooxygenase activity was determined as described herein above."}, "[8]": {"tested_on": "colon polyp", "conditions": "patients with familial polyposis; cited from earlier work"}, "[9]": {"tested_on": "PGHS-2", "conditions": "cytokine-treated astrocytes; cited from earlier work"}, "[10]": {"tested_on": "lung disease of cystic fibrosis", "conditions": "high-dose, cystic fibrosis patient population; cited from earlier work"}}, "data": [{"compound": "CC(=O)Nc1ccc(O)cc1", "note": "[acetaminophen]", "values": [{"measurement": "potency against griPGHS activity (rank among four NSAIDs)", "setting": "[1]; 0.2 μM-2 mM, 30 min drug then 15 min arachidonic acid", "result": "the least"}, {"measurement": "concentration not sufficient for full inhibition of griPGHS activity", "setting": "[1]; highest dose tested", "result": "> 2", "unit": "mM"}]}, {"compound": "C[C@@H]1C[C@H]2[C@@H]3CCC4=CC(=O)C=C[C@]4(C)[C@@]3(F)[C@@H](O)C[C@]2(C)[C@@]1(O)C(=O)CO", "note": "[dexamethasone]", "values": [{"measurement": "level of accumulated PGE2 in the supernatant", "setting": "[2]", "result": 52.5, "unit": "pg per 10^4 monocytes"}, {"measurement": "griPGHS mRNA levels down-regulated, normalized to β-tubulin", "setting": "[3]; dexamethasone 1 μM, 4 hr, human monocytes", "result": 5, "unit": "fold"}]}, {"compound": "C[C@@H]1C[C@@H]([C@H](O)CC2CC(=O)NC(=O)C2)C(=O)[C@@H](C)C1", "note": "[cycloheximide]", "values": [{"measurement": "levels of the 2.8-kb mRNA relative to β-tubulin", "setting": "[4]", "result": "not significantly altered"}, {"measurement": "effect on 4.8-kb griPGHS mRNA", "setting": "[3]; cycloheximide 25 μM added 15 min before cytokine or hormone", "result": "superinduction"}, {"measurement": "inhibition at 25 µM", "setting": "[5]", "result": "> 97", "unit": "%"}]}, {"compound": "CC(=O)Oc1ccccc1C(=O)O", "note": "[aspirin]", "values": [{"measurement": "association of use with colon tumor outcome", "setting": "[6]", "result": "decreased colon tumor growth and death"}, {"measurement": "levels of drug required for inhibition, cells expressing PGHS-1 versus PGHS-2", "setting": "[7]", "result": "different"}]}, {"compound": "CC1=C(CC(=O)O)c2cc(F)ccc2/C1=C\\c1ccc([S+](C)[O-])cc1", "note": "(stereo not drawn) [Sulindac]", "values": [{"measurement": "effect on colon polyps", "setting": "[8]", "result": "colon polyp regression"}]}, {"compound": "IL-1β: proinflammatory cytokine, known mediator of inflammation (Collaborative Research)", "values": [{"measurement": "levels of the 2.8-kb mRNA relative to β-tubulin", "setting": "[4]", "result": "not significantly altered"}, {"measurement": "increased levels of griPGHS mRNA relative to control", "setting": "[3]; 4 hr, human monocytes", "result": 2.5, "unit": "fold"}, {"measurement": "increased levels of griPGHS mRNA relative to control", "setting": "[3]; 12 hr, human monocytes", "result": 14, "unit": "fold"}]}, {"compound": "CS(=O)(=O)Nc1ccc([N+](=O)[O-])cc1OC1CCCCC1", "note": "[NS-398]", "values": [{"measurement": "induced cyclooxygenase activity", "setting": "[9]", "result": "blocked"}]}, {"compound": "CC(C)Cc1ccc(C(C)C(=O)O)cc1", "note": "(stereo not drawn) [ibuprofen]", "values": [{"measurement": "effect on lung disease", "setting": "[10]", "result": "slows the progression of lung disease"}]}]}
